For one assay, the system named is Rhodococcus sp. Put plainly: Bacterial liquid culture growth curves (OD600), Rhodococcus sp. The conditions noted are these: 18.5 h, read-out: Absolute growth rate relative to mock control, Rhodococcus sp.
Assay [1] has as its system Albugo laibachii. Put plainly: Albugo laibachii on A. thaliana, syringe infiltration of compound, visual scoring of disease severity. In kind it is in vivo. The conditions noted are these: in Arabidopsis thaliana, 100 μM in 1% DMSO syringe infiltrated into adult A. thaliana, visually scored at nine dpi, read-out: A. laibachii Inhibitory effect. As for the experimental part: A. thaliana seeds were stratified on moist soil (Einheitserde type A240, Stender, Germany) for seven days at 4° C. in darkness, before transfer into growth chambers with short day conditions (10 h light, 14 h darkness, 23/20° C., 60% humidity). After three weeks, seedlings were singularised and grown for three weeks further. After six weeks, A. thaliana plants were used for experiments and after infection they were transferred into SANYO (Panasonic MLR-352, Japan) growth cabinets (10 h light, 14 h darkness, 22/16° C.). Potato plants were grown from tubers by covering them with soil (Einheitserde type A240, Stender, Germany). The leaves of adult plants (˜4-6 weeks old) were cut off and kept in a moist environment for infection assays.
For regular Albugo sp. infections A. thaliana Ws-0 was sprayed with an Albugo sp. conidiospores solution. These spore solutions were prepared by harvesting sporulating leaf material at 14 days post infection (dpi) and adding water for rehydration of the spores. Spore solutions were hold on ice for ˜1 h, before filtering through miracloth (Merck Millipore, Germany) to remove dirt. Spores were counted and the solutions diluted to 22.2×10^4 conidiospores/ml. Albugo sp. spore solutions were sprayed uniformly on A. thaliana leaves (4.5 ml per six plants) using an airbrush gun. During spraying, plants were placed in a plastic bag and afterwards transferred into a cold room to incubate at 4° C. in darkness (˜16 h). The next morning, plants were transferred into plant growth cabinets, but left in clear bags to keep humidity high, which supports Albugo sp. infections. ˜24 h later plants were unbagged and further incubated under normal plant growth conditions.
Afterwards, the plants were kept in the lab for ˜1 h to let the leaves equilibrate again. The infiltrated plants were infected with Albugo sp., following the above-mentioned protocol. At 7 dpi, infiltrated leaves were phenotypically scored and harvested. The samples were frozen in liquid nitrogen and stored at −80° C. until DNA extraction for growth quantification via qPCR. For experiment 4, A. candida spore solutions were prepared as before and mixed with 10 mM stock solution of the test compound (100 μM end conc.). The mixture of spore solution and test compound was sprayed and incubated as for experiment 2 and 3.
• Fungicidal activity against other oomycetes was tested using isolates of the obligate biotrophic pathogen genus Albugo on Arabidopsis thaliana. The test compounds, 100 μM in 1% DMSO, were syringe infiltrated into adult A. thaliana and subsequently sprayed with aqueous spore solutions of Albugo laibachii or A. candida. In primary screenings, disease severity was visually screened and scored at nine days post infection (dpi) (Table 2+3).

The test system of assay [2] is Pseudomonas syringae pv. tomato (Pto) DC3000. Put plainly: Bacterial liquid culture growth curves (OD600), Pto DC3000. Conditions: 18.5 h, read-out: Absolute growth rate relative to mock control, Pto DC3000.
A further assay relates to Phytophthora infestans. Put plainly: whole plant or invertebrate. In kind it is in vivo. The conditions noted are these: in Solanum tuberosum, 120 h, read-out: P. infestans % inhibition.
In assay [3] the test system is Albugo laibachii. Put plainly: Albugo laibachii growth on A. thaliana after syringe infiltration, quantified via qPCR. The conditions noted are these: for inhibition at 100 µM: Albugo laibachii, in Arabidopsis thaliana, qPCR at 7 dpi, A. thaliana. In kind it is in vivo.
The subject of a further assay is Albugo candida. Put plainly: Albugo candida growth on A. thaliana after syringe infiltration, quantified via qPCR. In kind it is in vivo. Conditions: for inhibition at 100 µM: Albugo candida, in Arabidopsis thaliana, qPCR at 7 dpi, A. thaliana; for inhibition of A. candida growth (in words): Table 4, qPCR at 7 dpi.
For the next assay, the system named is P. infestans. Put plainly: whole plant or invertebrate. Conditions: Phytophthora infestans, in Solanum tuberosum, read-out: P. infestans % inhibition. In kind it is in vivo.

Results on 24 compounds are retold here after US20250228242A1 (priority 2021, published 2025).

Structures are written as SMILES. Counter-ions that a name gives are not always drawn. Bounds are passed on as bounds.

With `Oc1ccc(-c2cc(-c3cccc(Br)c3)[nH]n2)cc1O` [Compound 4, 5-(3-Bromophenyl)-3-(3,4-dihydroxyphenyl)-1H-pyrazole], the figures for the activity at 100 µM (in the assay with Rhodococcus sp.; in assay [2]) were -1% and 48%, respectively. Moreover, the inhibition at 100 µM in the assay with Albugo laibachii [1] is 5 to 30%.

For the compound `Oc1cc(-c2cc(-c3cc(Br)cc(Br)c3)[nH]n2)cc(O)c1O` [Compound 6, 5-(3,5-Dibromophenyl)-3-(3,4,5-trihydroxyphenyl)-1H-pyrazole], the activity at 100 µM came to 1% with Rhodococcus sp. and 73% in assay [2]. Moreover, the inhibition at 100 µM in the assay with Albugo laibachii [1] is more than 70%.

With `Fc1cccc(-c2cc(-c3ccc4c(c3)OCO4)n[nH]2)c1` [Compound 7, 3-(1,3-Benzodioxol-5-yl)-5-(3-fluorophenyl)-1H-pyrazole], the activity at 100 µM in the assay on Rhodococcus sp. stood at 14%; in assay [2] it was 98%. Besides, the inhibition at 100 µM with Albugo laibachii [1] fell in the range of 30 to 70%.

For the compound `Ic1cccc(-c2cc(-c3ccc4c(c3)OCO4)n[nH]2)c1` [Compound 8, 3-(1,3-Benzodioxol-5-yl)-5-(3-iodophenyl)-1H-pyrazole], the activity at 100 µM in the assay with Rhodococcus sp. came out at 35%; in assay [2], 100%. Also, in the assay on Albugo laibachii [1], the inhibition at 100 µM was 5 to 30%.

For `COc1cccc(-c2cc(-c3ccc4c(c3)OCO4)n[nH]2)c1` [Compound 9, 3-(1,3-Benzodioxol-5-yl)-5-(3-methoxyphenyl)-1H-pyrazole], the activity at 100 µM with Rhodococcus sp. was determined as 8%; in assay [2], 100%. Also, the inhibition at 100 µM in the assay with Albugo laibachii [1] fell in the range of 30 to 70%.

In the case of `Brc1ccccc1-c1cc(-c2ccc3c(c2)OCO3)n[nH]1` [Compound 10, 3-(1,3-Benzodioxol-5-yl)-5-(2-bromophenyl)-1H-pyrazole], the results for the inhibition at 100 µM in the assay on Phytophthora infestans, in the assay on Albugo laibachii [3] and in the assay with Albugo candida were 82%, 36% and 68%, respectively. In addition, the results for the activity at 100 µM (in the assay with Rhodococcus sp.; in assay [2]) were 24% and 111%, respectively. Also, the “inhibition of A. candida growth (in words)” value in the assay on Albugo candida was “strong inhibition”.

For the compound `FC(F)(F)c1cccc(-c2cc(-c3ccc4c(c3)OCO4)n[nH]2)c1` [Compound 11, 3-(1,3-Benzodioxol-5-yl)-5-[3-(trifluoromethyl)phenyl]-1H-pyrazole], the activity at 100 µM in the assay with Rhodococcus sp. turned out to be 110%; in assay [2], 81%. Moreover, the inhibition at 100 µM in the assay on Albugo laibachii [1] fell in the range of 5 to 30%.

As to `Oc1ccc(-c2cc(-c3cccc(C(F)(F)F)c3)[nH]n2)cc1O` [Compound 12, 3-(3,4-Dihydroxyphenyl)-5-[3-(trifluoromethyl)phenyl]-1H-pyrazole], the inhibition at 100 µM with Phytophthora infestans turned out to be 76%. Moreover, the activity at 100 µM is -1% with Rhodococcus sp. and 104% in assay [2].

For `CN(C)c1ccc(-c2cc(-c3cccc(Br)c3)[nH]n2)cc1` [Compound 13, 5-(3-Bromophenyl)-3-[4-(dimethylamino)phenyl]-1H-pyrazole], the inhibition at 100 µM in the assay with Albugo laibachii [1] was more than 70%.

As to `CN(C)c1cccc(-c2cc(-c3ccc4c(c3)OCO4)n[nH]2)c1` [Compound 14, 3-[3-(1,3-benzodioxol-5-yl)-1H-pyrazol-5-yl]-N,N-dimethylaniline], the inhibition at 100 µM in the assay on Phytophthora infestans was found to be 71%. Further, the figures for the activity at 100 µM (with Rhodococcus sp.; in assay [2]) were 11% and 100%, respectively.

For the compound `Oc1ccc(-c2cc(-c3cccc(F)c3)[nH]n2)cc1O` [Compound 16, 3-(3,4-Dihydroxyphenyl)-5-(3-fluorophenyl)-1H-pyrazole], the activity at 100 µM was determined as 0% in the assay with Rhodococcus sp. and 66% in assay [2]. The inhibition at 100 µM with Albugo laibachii [1] lay within 30 to 70%.

Regarding `Oc1ccc(-c2cc(-c3cccc(F)c3)on2)cc1O` [Compound 21, 3-(3,4-Dihydroxyphenyl)-5-(3-fluorophenyl)isoxazole], the inhibition at 100 µM in the assay on Phytophthora infestans stood at 70%. Besides, the activity at 100 µM with Rhodococcus sp. was determined as 2%; in assay [2] it was 93%.

Take `Oc1ccc(-c2noc(-c3cccc(F)c3)n2)cc1O` [Compound 25, 3-(3,4-Dihydroxyphenyl)-5-(3-fluorophenyl)-1,2,4-oxadiazole]: the inhibition at 100 µM in the assay on Phytophthora infestans is 79%. Besides, the activity at 100 µM with Rhodococcus sp. came to 1%; in assay [2], 105%.

Regarding `Oc1ccc(-c2cc(-c3ccc(O)c(O)c3)[nH]n2)cc1O` [Compound 27, 3,5-Bis(3,4-Dihydroxyphenyl)-1H-pyrazole hydrobromide], the inhibition at 100 µM in the assay with Phytophthora infestans stood at 62%. Also, the activity at 100 µM was 98% with Rhodococcus sp. and 77% in assay [2].

`COc1ccc(-c2cc(-c3cccc(Br)c3)[nH]n2)cc1OC` [Compound 29, 5-(3-Bromophenyl)-3-(3,4-dimethoxyphenyl)-1H-pyrazole]: the activity at 100 µM was found to be 62% with Rhodococcus sp. and 88% in assay [2]. Also, in the assay on Albugo laibachii [1], the inhibition at 100 µM fell in the range of 30 to 70%.

With `COc1ccc(-c2c[nH]c(-c3ccc(OC)c(OC)c3)n2)cc1OC` [Compound 30, 2,4-Bis(3,4-dimethoxyphenyl)-1H-imidazole], the inhibition at 100 µM in the assay on Phytophthora infestans turned out to be 46%. The activity at 100 µM with Rhodococcus sp. was found to be 35%; in assay [2], 109%.

Take `COc1ccc(-c2cc(-c3ccc(O)cc3)[nH]n2)cc1OC` [Compound 32, 3-(3,4-Dimethoxyphenyl)-5-(4-hydroxyphenyl)-1H-pyrazole]: in the assay with Phytophthora infestans, the inhibition at 100 µM turned out to be 77%. Also, the results for the activity at 100 µM (in the assay with Rhodococcus sp.; in assay [2]) were 10% and 90%, respectively.

Consider `COc1ccc(-c2cc(-c3cccc(O)c3)[nH]n2)cc1OC` [Compound 33, 3-(3,4-Dimethoxyphenyl)-5-(3-hydroxyphenyl)-1H-pyrazole], for which the inhibition at 100 µM with Phytophthora infestans came out at 85%; in the assay with P. infestans, 84%. The activity at 100 µM stood at 6% in the assay with Rhodococcus sp. and 90% in assay [2].

Take `Oc1cccc(-c2cc(-c3ccc4c(c3)OCO4)n[nH]2)c1` [Compound 34, 3-(1,3-Benzodioxol-5-yl)-5-(3-hydroxyphenyl)-1H-pyrazole]: the activity at 100 µM in the assay with Rhodococcus sp. was -1%; in assay [2], 56%. For the same compound, the inhibition at 100 µM in the assay on Albugo laibachii [1] was in the range of 30 to 70%.

On to `Clc1cccc(-c2cc(-c3ccc4c(c3)OCO4)n[nH]2)c1` [Compound 35, 3-(1,3-Benzodioxol-5-yl)-5-(3-chlorophenyl)-1H-pyrazole], for which the figures for the activity at 100 µM (with Rhodococcus sp.; in assay [2]) were 11% and 85%, respectively. Besides, the inhibition at 100 µM in the assay with Albugo laibachii [1] fell in the range of 30 to 70%.

In the case of `Brc1ccc(-c2cc(-c3ccc4c(c3)OCO4)n[nH]2)cc1` [Compound 38, 3-(1,3-Benzodioxol-5-yl)-5-(4-bromophenyl)-1H-pyrazole], the inhibition at 100 µM in the assay with Albugo laibachii [1] was more than 70%; with Albugo laibachii [3], 50%; in the assay with Albugo candida it was 53%. For the same compound, the “inhibition of A. laibachii growth (in words)” value in the assay with Albugo laibachii [3] (Table 4, qPCR at 7 dpi, p 5 0.05) was “significantly inhibited”. In the assay on Albugo candida, the “inhibition of A. candida growth (in words)” value is “strong inhibition”.

`Nc1ccc(-c2cc(-c3cccc(Cl)c3)[nH]n2)cc1` [Compound 39, 3-(4-Aminophenyl)-5-(3-chlorophenyl)-1H-pyrazole]: the activity at 100 µM in the assay with Rhodococcus sp. is -1%; in assay [2] it was 94%. In addition, the inhibition at 100 µM with Albugo laibachii [1] was in the range of 30 to 70%.

Turning to `Nc1ccc(-c2cc(-c3cccc(Br)c3)[nH]n2)cc1` [Compound 40, 3-(4-Aminophenyl)-5-(3-bromophenyl)-1H-pyrazole], the values for the activity at 100 µM (in the assay on Rhodococcus sp.; in assay [2]) were -1% and 91%, respectively. Further, the inhibition at 100 µM in the assay on Albugo laibachii [1] is more than 70%.

For `Cn1nc(-c2ccc3c(c2)OCO3)cc1-c1cccc(Br)c1` [Compound 41, 3-(1,3-Benzodioxol-5-yl)-5-(3-bromophenyl)-1-methyl-1H-pyrazole], the activity at 100 µM in the assay on Rhodococcus sp. stood at 62%; in assay [2] it was 106%. Also, in the assay on Albugo laibachii [1], the inhibition at 100 µM fell in the range of 30 to 70%.
